System: normal human dermal fibroblast cultures
Assay: Effect on collagen synthesis: incorporation of radioactive proline into fibroblast cultures
Type: cell-based
Settings: for tritiated proline incorporated, cpm (counts per minute): untreated cells 19261 cpm; for tritiated proline incorporation, % relative to untreated cells: untreated cells = 100
Protocol: The study is carried out by measuring the incorporation of radioactive proline into normal human dermal fibroblast cultures. The fibroblast cultures are prepared according to the standard methods of cell culturing, i.e. in MEM/M199 medium sold by the company Gibco, in the presence of sodium bicarbonate (1.87 mg/ml), L-glutamine (2 mM), penicillin (50 IU/ml) and 10% foetal calf serum (Gibco). The test is carried out on cell cultures at 80% confluence on 24-well plates. Cinnamic acid, at a concentration of 10^−4M is placed in contact with the cells for 48 hours. Labelling with tritiated proline (L-[2,3-^3H]-proline sold by Amersham, 33 μCi/ml) is carried out for 24 hours. The level of tritiated proline incorporated is measured at the end of the test by acidic precipitation of the proteins on filters and counting by liquid scintillation. The results are assessed relative to a control consisting of cells which have not been treated with cinnamic acid. A positive control (20 μg/ml of vitamin C), which is known to stimulate collagen synthesis, and a negative control (10^−6M retinoic acid), which is known to inhibit collagen synthesis, are introduced into the test by way of reference.

[1] = cinnamic acid 10^-4 M, 48 hours contact, 24 hours labelling
[2] = negative control, 10^-6 M retinoic acid
[3] = positive control, 20 μg/ml of vitamin C

## O=C(O)C=Cc1ccccc1 [Cinnamic acid]
Cinnamic acid 10^-4 M, 48 hours
  incorporation of proline into collagen (collagen neosynthesis), result in words: significantly stimulates the incorporation of proline into collagen
[1]
  tritiated proline incorporated, cpm (counts per minute): 26209 cpm
  tritiated proline incorporation, % relative to untreated cells: 136%

## CC1=C(/C=C/C(C)=C/C=C/C(C)=C/C(=O)O)C(C)(C)CCC1 [Retinoic acid, retinoic acid]
[2]
  tritiated proline incorporated, cpm (counts per minute): 13160 cpm
  tritiated proline incorporation, % relative to untreated cells: 68%

## O=C1O[C@H]([C@@H](O)CO)C(O)=C1O [Vitamin C, vitamin C]
[3]
  tritiated proline incorporated, cpm (counts per minute): 40344 cpm
  tritiated proline incorporation, % relative to untreated cells: 209%
